Measured values: US6486096B1, “Herbicidal compositions with acylated aminophenylsulfonylureas” (priority 1998, dated 2002)
Values joined by “and” are separate entries in the source; they are usually repeats but may differ in a detail not shown here. Equal values may be shown once.

How the values were obtained:
Format in all cases: in vivo
Brachiaria plantophylla = assay: Herbicidal action, visual scoring; conditions: Table 24; post-emergence; scoring 6 weeks after application; g of A.S./ha by row: r6 45, r7 22.5, r8 60, r9 30, r11 22.5 + 30, r13 60, r14 30, r16 22.5 + 30, r18 450, r20 22.5 + 450
Procedure: (§1) The herbicidal activity of the active substances or active substance mixtures was scored visually with the aid of the treated parcels in comparison with untreated control parcels. Damage to and development of all above-ground parts of plants was recorded here. Scoring was carried out on a percentage scale (100% action=all plants died; 50% action=50% of the plants and green plant parts died; 0% action=no discernible action=like control parcels. The mean of the scoring values of 4 parcels in each case was taken.
(§2) Seeds or rhizome pieces of monocotyledonous and dicotyledonous weeds are placed in sandy loam soil in pots, covered with soil and grown in the greenhouse under good growth conditions (temperature, humidity, water supply). Three weeks after sowing, the test plants in the three-leaf stage are treated with the compositions according to the invention. The compositions according to the invention which are formulated as wettable powders or as emulsion concentrates are sprayed in various dosages on the green parts of the plants at an application rate of 600 to 800 l of water/ha (converted). After the test plants have remained in the greenhouse for about 3 to 4 weeks under optimal growth conditions, the effect of the products is scored visually by comparison with untreated controls. When applied post-emergence, too, the compositions according to the invention have a good herbicidal activity against a broad spectrum of economically important grass weeds and broad-leaved weeds.
(§3) Crop plants were raised outdoors under natural outdoor conditions on plots in which seeds or rhizome sections of typical harmful plants had been sown or the natural weed infestation was used. The treatment with the compositions according to the invention was carried out after the emergence of the harmful plants and the crop plants, as a rule in the 2 to 4-leaf stage; in some cases (as indicated) the application of individual active substances or active substance combinations was carried out pre-emergence (cf. Example 1) or as a sequence treatment, in some cases pre-emergence and/or post-emergence.
(§4) After the application, e.g. 2, 4, 6 and 8 weeks after application, the action of the preparations was scored visually in comparison with untreated controls (cf. score in Example 1). […] The crop plants, however, were not damaged or were only insignificantly damaged as a result of the treatment with the herbicidal compositions.

rice = assay: Damage on crop plants (selectivity), visual scoring; conditions: Table 24; post-emergence; scoring 6 weeks after application; g of A.S./ha by row: r6 45, r7 22.5, r8 60, r9 30, r11 22.5 + 30, r13 60, r14 30, r16 22.5 + 30, r18 450, r20 22.5 + 450
Procedure: as §1, §3
(§5) After the application, e.g. 2, 4, 6 and 8 weeks after application, the action of the preparations was scored visually in comparison with untreated controls (cf. score in Example 1). […]

[1] = test system: Sethoxidime-resistant corn (SR); assay: as above; conditions: Table 22, post-emergence, scoring 4 weeks after application, g of A.S./ha by row: r7 50, r8 25, r9 12.5, r10 400, r11 200, r12 100, r13 12.5 + 100, r14 12.5 + 200, r15 25 + 100
Procedure: as §1, §3, §5

[2] = test system: ABUTH = Abutilon theophrasti; assay: Herbicidal action, visual scoring; conditions: Table 2; scoring 3 weeks after application; (pe) pre-emergence, (po) post-emergence; g of A.S./ha by row: r6 35 (po), r7 1120 + 1120 (pe), r9 (1120 + 1120) (pe) + 35 (po)
Procedure: as §1, §2, §3, §4

Avena sterilis = assay: Herbicidal action, visual scoring; conditions: Table 8; post-emergence; scoring 46 days after application; g of A.S./ha by row: r7 60, r8 270, r9 450, r10 60 + 270
Procedure: as §1, §2, §3, §4

Chrysanthemum coronarium = assay: Herbicidal action, visual scoring; conditions: Table 8; post-emergence; scoring 46 days after application; g of A.S./ha by row: r7 60, r8 270, r9 450, r10 60 + 270
Procedure: as §1, §2, §3, §4

[3] = test system: EPHHL = Euphorbia heterophylla; assay: Herbicidal action, visual scoring; conditions: Table 13; post-emergence; scoring 3 weeks after application; g of A.S./ha by row: r7 30, r8 100, r9 150, r10 30 + 50
Procedure: as §1, §2, §3, §4

[4] = test system: IPOPU = Ipomoea purpureum; assay: Herbicidal action, visual scoring; conditions: Table 3, post-emergence, scoring 6 weeks after application, g of A.S./ha 15, 30, 45, 60, 300, 30 + 300
Procedure: as §1, §2, §3, §4

[5] = test system: PHBPU = Pharbitis purpurea; assay: Herbicidal action, visual scoring; conditions: Table 2; scoring 3 weeks after application; (pe) pre-emergence, (po) post-emergence; g of A.S./ha by row: r6 35 (po), r7 1120 + 1120 (pe), r9 (1120 + 1120) (pe) + 35 (po)
Procedure: as §1, §2, §3, §4

SOLNI = assay: Herbicidal action, visual scoring; conditions: Table 10, post-emergence, scoring 3 weeks after application, g of A.S./ha by row: r7 120, r8 60, r9 30, r10 15, r11 12, r12 6, r13 3, r14 30 + 6, r16 15 + 6, r18 30 + 3
Procedure: as §1, §2, §3, §4

[6] = test system: XANOR (Xanthium orientalis); assay: Herbicidal action, visual scoring; conditions: Table 10, post-emergence, scoring 3 weeks after application, g of A.S./ha by row: r7 120, r8 60, r9 30, r10 15, r20 2000, r21 1000, r22 500, r23 30 + 1000, r25 15 + 1000, r27 30 + 500
Procedure: as §1, §2, §3, §4

COP(=S)(OC)SCC(=O)N(c1ccc(Cl)cc1)C(C)(C)C [(B1.6.11), anilofos]
Herbicidal action Brachiaria plantophylla (Brachiaria plantophylla): 35%
Damage on rice (rice): 8%

CCC/C(=N\OCC)C1=C(O)CC(CC(C)SCC)CC1=O (stereo not shown) [(B1.6.33), sethoxydim]
Damage on corn (SR) [1]: 3% and 2% and 0%

COc1cc(OC)nc(NC(=O)NS(=O)(=O)c2cc(NC=O)ccc2C(=O)N(C)C)n1 [(A1.1), N-[N-(4,6-dimethoxypyrimidin-2-yl)aminocarbonyl]-2-(dimethylaminocarbonyl)-5-(formylamino)benzenesulfonamide]
Herbicidal action ABUTH [2]: 88%
Herbicidal action against Avena sterilis (Avena sterilis): 83%
Herbicidal action against Chrysanthemum coronarium (Chrysanthemum coronarium): 20%
Herbicidal action EPHHL [3]: 70%
Herbicidal action IPOPU ([4]; 15 g of A.S./ha): 43%
Herbicidal action IPOPU ([4]; 30 g of A.S./ha): 67%
Herbicidal action IPOPU ([4]; 45 g of A.S./ha): 70%
Herbicidal action IPOPU ([4]; 60 g of A.S./ha): 83%
Herbicidal action PHBPU [5]: 45%
Herbicidal action SOLNI (SOLNI; 15 g active substance per ha): 65%
Herbicidal action SOLNI (SOLNI; 30 g active substance per ha): 83%
Herbicidal action SOLNI (SOLNI; 60 g active substance per ha): 90%
Herbicidal action SOLNI (SOLNI; 120 g active substance per ha): 90%
Herbicidal action XANOR ([6]; 15 g active substance per ha): 45%
Herbicidal action XANOR ([6]; 30 g active substance per ha): 55%
Herbicidal action XANOR ([6]; 120 g active substance per ha): 60%
